The source made the active and inactive calls. The calls are words filed in the database; no cut-off is given here.

Data on one compound can be found in ChEMBL document CHEMBL1208667, “Permanent positive charge strongly influences DNA/RNA binding and antiproliferative activity of urea-phenanthridinium conjugates” (Eur J Med Chem, 2010).

One test concerns Nucleic Acid. As to the kind of experiment: Binding affinity to poly G-poly C RNA in sodium cacodylate buffer at pH 7 by fluorescence titration assay relative to control. The class given is nucleic-acid assay.
Conditions: not given
For the compound `Cc1c2cc(NC(=O)NCCCCCCNC(=O)Nc3ccc4c(c3)c(C)[n+](C)c3ccccc43)ccc2c2ccccc2[n+]1C.O=S(=O)([O-])O.O=S(=O)([O-])O`, the RFU came out at 0.3.

Another test relates to Nucleic Acid. As to the kind of experiment: Binding affinity to […] assessed as melting temperature at compound to DNA molar ratio of 0.3 at pH 5 by thermal denaturation assay. The class given is nucleic-acid assay.
Conditions: not given
For `Cc1c2cc(NC(=O)NCCCCCCNC(=O)Nc3ccc4c(c3)c(C)[n+](C)c3ccccc43)ccc2c2ccccc2[n+]1C.O=S(=O)([O-])O.O=S(=O)([O-])O`, the Tm was 60.4 °C.

Another test relates to Nucleic Acid. As to the kind of experiment: Binding affinity to poly G-poly C RNA in sodium cacodylate buffer at pH 7 by fluorescence titration assay.
Conditions: not given
It is filed as nucleic-acid assay.
Consider `Cc1c2cc(NC(=O)NCCCCCCNC(=O)Nc3ccc4c(c3)c(C)[n+](C)c3ccccc43)ccc2c2ccccc2[n+]1C.O=S(=O)([O-])O.O=S(=O)([O-])O`, for which the log Ks is 6.2.

A further test deals with Calf thymus DNA. Kind of test: Binding affinity to calf thymus DNA assessed as melting temperature at compound to DNA molar ratio of 0.3 at pH 5 by thermal denaturation assay. It is filed as nucleic-acid assay. As to conditions: Bos taurus.
Turning to `Cc1c2cc(NC(=O)NCCCCCCNC(=O)Nc3ccc4c(c3)c(C)[n+](C)c3ccccc43)ccc2c2ccccc2[n+]1C.O=S(=O)([O-])O.O=S(=O)([O-])O`, the Tm was 76.3 °C.

The next test relates to Nucleic Acid. As to the kind of experiment: Binding affinity to […] assessed as change in melting temperature at compound to DNA molar ratio of 0.2 at pH 5 by thermal denaturation assay. It is filed as nucleic-acid assay.
Conditions: not given
With `Cc1c2cc(NC(=O)NCCCCCCNC(=O)Nc3ccc4c(c3)c(C)[n+](C)c3ccccc43)ccc2c2ccccc2[n+]1C.O=S(=O)([O-])O.O=S(=O)([O-])O`, the ΔTm was 9.7 °C.

A further test relates to Nucleic Acid. Kind of test: Binding affinity to UMP in citric acid buffer at pH 5 by fluorescence titration assay relative to control. The class given is nucleic-acid assay.
Conditions: not given
As to `Cc1c2cc(NC(=O)NCCCCCCNC(=O)Nc3ccc4c(c3)c(C)[n+](C)c3ccccc43)ccc2c2ccccc2[n+]1C.O=S(=O)([O-])O.O=S(=O)([O-])O`, the RFU was -11.5.

For a further test, the system named is Nucleic Acid. Kind of test: Binding affinity to […] assessed as change in melting temperature at compound to DNA molar ratio of 0.3 at pH 7 by thermal denaturation assay. The class given is nucleic-acid assay.
Conditions: not given
`Cc1c2cc(NC(=O)NCCCCCCNC(=O)Nc3ccc4c(c3)c(C)[n+](C)c3ccccc43)ccc2c2ccccc2[n+]1C.O=S(=O)([O-])O.O=S(=O)([O-])O`: the ΔTm turned out to be 6.4 °C.

For another test, the system named is Nucleic Acid. As to the kind of experiment: Binding affinity to poly dA-poly dT RNA in citric acid buffer at pH 5 by fluorescence titration assay. It is filed as nucleic-acid assay.
Conditions: not given
`Cc1c2cc(NC(=O)NCCCCCCNC(=O)Nc3ccc4c(c3)c(C)[n+](C)c3ccccc43)ccc2c2ccccc2[n+]1C.O=S(=O)([O-])O.O=S(=O)([O-])O` yielded a log Ks of 6.1.

The subject of the next test is Caco-2. Kind of test: Cytotoxicity against human Caco-2 cells at 100 uM after 72 hrs by MTT assay. It is filed as functional, cell-based.
Conditions: not given
Regarding `Cc1c2cc(NC(=O)NCCCCCCNC(=O)Nc3ccc4c(c3)c(C)[n+](C)c3ccccc43)ccc2c2ccccc2[n+]1C.O=S(=O)([O-])O.O=S(=O)([O-])O`, the outcome was Active.

The next test concerns Nucleic Acid. Kind of test: Binding affinity to poly A-poly U RNA assessed as melting temperature at compound to DNA molar ratio of 0.2 at pH 5 by thermal denaturation assay. It is filed as nucleic-acid assay.
Conditions: not given
Take `Cc1c2cc(NC(=O)NCCCCCCNC(=O)Nc3ccc4c(c3)c(C)[n+](C)c3ccccc43)ccc2c2ccccc2[n+]1C.O=S(=O)([O-])O.O=S(=O)([O-])O`: the midpoint of thermal melting (Tm) was found to be 83 °C.

The test system of another test is Calf thymus DNA. Kind of test: Binding affinity to calf thymus DNA in citric acid buffer at pH 5 by fluorescence titration assay. It is filed as nucleic-acid assay. Conditions: Bos taurus.
Regarding `Cc1c2cc(NC(=O)NCCCCCCNC(=O)Nc3ccc4c(c3)c(C)[n+](C)c3ccccc43)ccc2c2ccccc2[n+]1C.O=S(=O)([O-])O.O=S(=O)([O-])O`, the log Ks is more than 7.

A further test has as its system Nucleic Acid. As to the kind of experiment: Binding affinity to poly A-poly U RNA assessed as change in melting temperature at compound to DNA molar ratio of 0.2 at pH 5 by thermal denaturation assay. It is filed as nucleic-acid assay.
Conditions: not given
In the case of `Cc1c2cc(NC(=O)NCCCCCCNC(=O)Nc3ccc4c(c3)c(C)[n+](C)c3ccccc43)ccc2c2ccccc2[n+]1C.O=S(=O)([O-])O.O=S(=O)([O-])O`, the shift in melting temperature (ΔTm) was 2.2 °C.

The subject of a further test is Nucleic Acid. As to the kind of experiment: Binding affinity to poly A-poly U RNA in sodium cacodylate buffer at pH 7 by fluorescence titration assay.
Conditions: not given
The class given is nucleic-acid assay.
In turn, `Cc1c2cc(NC(=O)NCCCCCCNC(=O)Nc3ccc4c(c3)c(C)[n+](C)c3ccccc43)ccc2c2ccccc2[n+]1C.O=S(=O)([O-])O.O=S(=O)([O-])O` came in with a log Ks of 5.4.

Another test concerns Calf thymus DNA. Kind of test: Binding affinity to calf thymus DNA assessed as melting temperature at compound to DNA molar ratio of 0.2 at pH 7 by thermal denaturation assay. It is filed as nucleic-acid assay. As to conditions: Bos taurus.
As to `Cc1c2cc(NC(=O)NCCCCCCNC(=O)Nc3ccc4c(c3)c(C)[n+](C)c3ccccc43)ccc2c2ccccc2[n+]1C.O=S(=O)([O-])O.O=S(=O)([O-])O`, the melting temperature (Tm) stood at 83.2 °C.

In another test the test system is Calf thymus DNA. Kind of test: Binding affinity to calf thymus DNA assessed as change in melting temperature at compound to DNA molar ratio of 0.2 at pH 5 by thermal denaturation assay. The class given is nucleic-acid assay. Conditions: Bos taurus.
`Cc1c2cc(NC(=O)NCCCCCCNC(=O)Nc3ccc4c(c3)c(C)[n+](C)c3ccccc43)ccc2c2ccccc2[n+]1C.O=S(=O)([O-])O.O=S(=O)([O-])O`: the ΔTm was 14 °C.

For another test, the system named is Nucleic Acid. As to the kind of experiment: Binding affinity to CMP in citric acid buffer at pH 5 by fluorescence titration assay relative to control. The class given is nucleic-acid assay.
Conditions: not given
`Cc1c2cc(NC(=O)NCCCCCCNC(=O)Nc3ccc4c(c3)c(C)[n+](C)c3ccccc43)ccc2c2ccccc2[n+]1C.O=S(=O)([O-])O.O=S(=O)([O-])O` yielded an RFU of -15.3.

The next test relates to HEp-2. As to the kind of experiment: Cytotoxicity against human Hep2 cells at 0.1 to 100 uM after 72 hrs by MTT assay. The class given is functional, cell-based.
Conditions: not given
Take `Cc1c2cc(NC(=O)NCCCCCCNC(=O)Nc3ccc4c(c3)c(C)[n+](C)c3ccccc43)ccc2c2ccccc2[n+]1C.O=S(=O)([O-])O.O=S(=O)([O-])O`: the outcome was Active.

For the next test, the system named is Nucleic Acid. Kind of test: Binding affinity to poly A-poly U RNA assessed as melting temperature at compound to DNA molar ratio of 0.2 at pH 7 by thermal denaturation assay. It is filed as nucleic-acid assay.
Conditions: not given
`Cc1c2cc(NC(=O)NCCCCCCNC(=O)Nc3ccc4c(c3)c(C)[n+](C)c3ccccc43)ccc2c2ccccc2[n+]1C.O=S(=O)([O-])O.O=S(=O)([O-])O`: the Tm was determined as 51.5 °C.

A further test has as its system Nucleic Acid. Kind of test: Binding affinity to CMP in sodium cacodylate buffer at pH 7 by fluorescence titration assay relative to control. The class given is nucleic-acid assay.
Conditions: not given
For `Cc1c2cc(NC(=O)NCCCCCCNC(=O)Nc3ccc4c(c3)c(C)[n+](C)c3ccccc43)ccc2c2ccccc2[n+]1C.O=S(=O)([O-])O.O=S(=O)([O-])O`, the RFU was 3.5.

The next test has as its system Nucleic Acid. As to the kind of experiment: Binding affinity to poly A-poly U RNA at compound to DNA molar ratio of 0.1 to 0.5 at pH 5 by circular dichroism. The class given is nucleic-acid assay.
Conditions: not given
On to `Cc1c2cc(NC(=O)NCCCCCCNC(=O)Nc3ccc4c(c3)c(C)[n+](C)c3ccccc43)ccc2c2ccccc2[n+]1C.O=S(=O)([O-])O.O=S(=O)([O-])O`, for which the result was Active.

A further test relates to Nucleic Acid. As to the kind of experiment: Binding affinity to poly A-poly U RNA at compound to DNA molar ratio of 0.1 to 0.5 at pH 7 by circular dichroism. It is filed as nucleic-acid assay.
Conditions: not given
On to `Cc1c2cc(NC(=O)NCCCCCCNC(=O)Nc3ccc4c(c3)c(C)[n+](C)c3ccccc43)ccc2c2ccccc2[n+]1C.O=S(=O)([O-])O.O=S(=O)([O-])O`, for which the outcome was Active.

The test system of the next test is Nucleic Acid. As to the kind of experiment: Binding affinity to poly G-poly C RNA in citric acid buffer at pH 5 by fluorescence titration assay relative to control. The class given is nucleic-acid assay.
Conditions: not given
Turning to `Cc1c2cc(NC(=O)NCCCCCCNC(=O)Nc3ccc4c(c3)c(C)[n+](C)c3ccccc43)ccc2c2ccccc2[n+]1C.O=S(=O)([O-])O.O=S(=O)([O-])O`, the RFU turned out to be 0.
